Several values for one entry are separate records, joined by “and”; a condition that tells them apart may be missing. Equal values may be shown once. Inconclusive results and toxic doses are left out. The calls were made as follows: active = survival T/C of 150% or more; inactive = T/C below 125% in these data.
System: P388 leukemia ip, CD2F1 mice, survival T/C
Assay: NCI In Vivo Anticancer Drug Screen. Data for tumor model P388 Leukemia (intraperitoneal) in CD2F1 (CDF1) mice
Conditions: endpoint: median survival time, higher = longer survival
Summary of the method: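 Mice carrying the transplanted tumor received test compound or vehicle. Survival was recorded in each group, and the value is the treated-group measurement divided by that of the vehicle-treated control group.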

[1] = dose: 60.0 mg/kg/injection, schedule: Q01DX005 (ip), vehicle: saline with Tween-80
[2] = dose: 120.0 mg/kg/injection, schedule: Q01DX005 (ip), vehicle: saline with Tween-80
[3] = dose: 240.0 mg/kg/injection, schedule: Q01DX005 (ip), vehicle: saline with Tween-80
[4] = dose: 25.0 mg/kg/injection, schedule: Q01DX009 (ip), vehicle: saline with Tween-80
[5] = dose: 50.0 mg/kg/injection, schedule: Q01DX009 (ip), vehicle: saline with Tween-80
[6] = dose: 100.0 mg/kg/injection, schedule: Q01DX009 (ip), vehicle: saline with Tween-80
[7] = dose: 50.0 mg/kg/injection, schedule: Q01DX005 (ip), vehicle: Klucel (hydroxypropylcellulose) (HPC)
[8] = dose: 100.0 mg/kg/injection, schedule: Q01DX005 (ip), vehicle: Klucel (hydroxypropylcellulose) (HPC)
[9] = dose: 200.0 mg/kg/injection, schedule: Q01DX005 (ip), vehicle: Klucel (hydroxypropylcellulose) (HPC)
[10] = dose: 100.0 mg/kg/injection, schedule: Q04DX003 (ip), vehicle: saline with Tween-80
[11] = dose: 200.0 mg/kg/injection, schedule: Q01DX009 (ip), vehicle: saline with Tween-80
[12] = dose: 200.0 mg/kg/injection, schedule: Q04DX003 (ip), vehicle: saline with Tween-80
[13] = dose: 50.0 mg/kg/injection, schedule: Q01DX009 (ip), vehicle: saline
[14] = dose: 100.0 mg/kg/injection, schedule: Q01DX009 (ip), vehicle: saline
[15] = dose: 200.0 mg/kg/injection, schedule: Q01DX009 (ip), vehicle: saline
[16] = dose: 50.0 mg/kg/injection, schedule: Q01DX005 (ip), vehicle: saline
[17] = dose: 100.0 mg/kg/injection, schedule: Q01DX005 (ip), vehicle: saline

Measured: T/C

Cc1c2cc[n+](CCCCCCCC[n+]3ccc4c(C)c5[nH]c6ccccc6c5cc4c3C)c(C)c2cc2c1[nH]c1ccccc12
inactive: dose: 0.78 mg/kg/injection, schedule: Q04DX003 (ip), vehicle: distilled water + Tween-80 106 % of control | dose: 1.56 mg/kg/injection, schedule: Q04DX003 (ip), vehicle: distilled water + Tween-80 106 % of control | dose: 3.13 mg/kg/injection, schedule: Q04DX003 (ip), vehicle: distilled water + Tween-80 109 % of control | dose: 6.25 mg/kg/injection, schedule: Q04DX003 (ip), vehicle: distilled water + Tween-80 103 % of control and 113 % of control | dose: 12.5 mg/kg/injection, schedule: Q04DX003 (ip), vehicle: distilled water + Tween-80 105 % of control and 116 % of control and 122 % of control | dose: 25.0 mg/kg/injection, schedule: Q04DX003 (ip), vehicle: distilled water + Tween-80 116 % of control and 121 % of control and 123 % of control | dose: 100.0 mg/kg/injection, schedule: Q04DX003 (ip), vehicle: distilled water + Tween-80 121 % of control

Cc1ccc(S(=O)(=O)OCC2(COS(=O)(=O)c3ccc(C)cc3)CCC2)cc1
inactive: [1] 102 % of control | [2] 100 % of control | [3] 100 % of control

CC(C)(C)c1cc(/C2=c3\cc/c([n-]3)=C(\c3cc(C(C)(C)C)c(O)c(C(C)(C)C)c3)c3ccc([n-]3)/C(c3cc(C(C)(C)C)c(O)c(C(C)(C)C)c3)=c3/cc/c([n-]3)=C(\c3cc(C(C)(C)C)c(O)c(C(C)(C)C)c3)c3ccc2[n-]3)cc(C(C)(C)C)c1O.[Zn]
inactive: dose: 100.0 mg/kg/injection, schedule: Q04DX002 (ip), vehicle: saline with Tween-80 97 % of control | dose: 200.0 mg/kg/injection, schedule: Q04DX002 (ip), vehicle: saline with Tween-80 88 % of control | dose: 400.0 mg/kg/injection, schedule: Q04DX002 (ip), vehicle: saline with Tween-80 90 % of control

O=C(c1ccc2c(c1)C(=O)NC2=O)c1ccc2c(c1)C(=O)NC2=O
inactive: [4] 96 % of control | [5] 89 % of control | [6] 86 % of control

CCSc1ccc(N2C(N)=NC(N)=NC2(C)C)cc1
inactive: dose: 6.25 mg/kg/injection, schedule: Q01DX005 (ip), vehicle: saline with Tween-80 103 % of control | dose: 12.5 mg/kg/injection, schedule: Q01DX005 (ip), vehicle: saline with Tween-80 103 % of control | dose: 25.0 mg/kg/injection, schedule: Q01DX005 (ip), vehicle: saline with Tween-80 118 % of control

C=C(Br)COc1ccc2c(C)cc(=O)oc2c1
inactive: [1] 115 % of control | [2] 100 % of control | [3] 96 % of control

CC(C)=CCCC(C)(O)C1CC=C(C)CC1 (centres undefined)
inactive: dose: 20.0 mg/kg/injection, schedule: Q01DX005 (ip), vehicle: Klucel (hydroxypropylcellulose) (HPC) 95 % of control | dose: 40.0 mg/kg/injection, schedule: Q01DX005 (ip), vehicle: Klucel (hydroxypropylcellulose) (HPC) 95 % of control | dose: 80.0 mg/kg/injection, schedule: Q01DX005 (ip), vehicle: Klucel (hydroxypropylcellulose) (HPC) 98 % of control | dose: 160.0 mg/kg/injection, schedule: Q01DX005 (ip), vehicle: Klucel (hydroxypropylcellulose) (HPC) 98 % of control

COc1ccc(/C(=C/c2ccc([N+](=O)[O-])cc2)C(=O)O)cc1
inactive: [7] 105 % of control | [8] 105 % of control | [9] 105 % of control

CNCCNc1ncc([N+](=O)[O-])s1
inactive: dose: 25.0 mg/kg/injection, schedule: Q01DX001 (ip), vehicle: saline 115 % of control and 118 % of control | dose: 50.0 mg/kg/injection, schedule: Q01DX001 (ip), vehicle: saline 122 % of control and 124 % of control

COC(=O)C1CC(=O)N(C)c2sc(C)c(C)c2C1=O (centres undefined)
inactive: [4] 103 % of control | [5] 93 % of control | [6] 94 % of control | [10] 97 % of control | [11] 94 % of control | [12] 93 % of control

O=C(CCl)NC(Cc1cccs1)C(=O)O (centres undefined)
inactive: [13] 98 % of control | [14] 93 % of control | [15] 96 % of control

CC(CC=O)CCCC(C)(C)O (centres undefined)
inactive: [10] 100 % of control | [12] 100 % of control | dose: 400.0 mg/kg/injection, schedule: Q04DX003 (ip), vehicle: saline with Tween-80 100 % of control

C[S+](C)C
inactive: [14] 110 % of control | [15] 110 % of control | dose: 400.0 mg/kg/injection, schedule: Q01DX009 (ip), vehicle: saline 110 % of control

O=[N+]([O-])c1ccc(O)c(O)c1
inactive: dose: 12.5 mg/kg/injection, schedule: Q01DX009 (ip), vehicle: saline 100 % of control | dose: 25.0 mg/kg/injection, schedule: Q01DX009 (ip), vehicle: saline 108 % of control | [13] 98 % of control

NCCN(Cc1ccccc1)C1CC1
inactive: [13] 98 % of control | [14] 91 % of control

COc1cc2ccc(C(C)=O)c(O)c2cc1OC
inactive: dose: 12.5 mg/kg/injection, schedule: Q01DX009 (ip), vehicle: other 92 % of control | dose: 25.0 mg/kg/injection, schedule: Q01DX009 (ip), vehicle: other 101 % of control | dose: 50.0 mg/kg/injection, schedule: Q01DX009 (ip), vehicle: other 90 % of control | dose: 100.0 mg/kg/injection, schedule: Q01DX009 (ip), vehicle: other 108 % of control | dose: 200.0 mg/kg/injection, schedule: Q01DX009 (ip), vehicle: other 97 % of control | dose: 400.0 mg/kg/injection, schedule: Q01DX009 (ip), vehicle: other 99 % of control

O=[N+]([O-])c1cnc(/C=N/N2CCN(/N=C/c3ncc([N+](=O)[O-])[nH]3)CC2)[nH]1
inactive: dose: 12.5 mg/kg/injection, schedule: Q01DX009 (ip), vehicle: saline with Tween-80 90 % of control | [4] 89 % of control | [5] 88 % of control

Oc1ccccc1/C=N/C(/N=C/c1ccccc1O)c1ccccc1O
inactive: [5] 100 % of control | [6] 101 % of control | [11] 100 % of control

CCc1c(O)sc2c(c1=O)C(=NCC(C)C)CC(C)(C)N2
inactive: [16] 86 % of control | [17] 94 % of control | dose: 200.0 mg/kg/injection, schedule: Q01DX005 (ip), vehicle: saline 97 % of control

CCOC(=O)N/C=C/C(C)=O
inactive: [1] 98 % of control | [2] 100 % of control | [3] 106 % of control

CC(C)CCCCCc1ccc(OCCOc2ccc(C(=O)Nc3ccc(S(=O)(=O)F)cc3N)cc2)cc1
inactive: dose: 50.0 mg/kg/injection, schedule: Q04DX003 (ip), vehicle: saline sonified 100 % of control | dose: 100.0 mg/kg/injection, schedule: Q04DX003 (ip), vehicle: saline sonified 100 % of control | dose: 200.0 mg/kg/injection, schedule: Q04DX003 (ip), vehicle: saline sonified 90 % of control

CC1(C)C(=O)C(O)=Cc2ccccc21
inactive: [7] 109 % of control | [8] 107 % of control | [9] 101 % of control

O=C1NC2(CCCCC2)C(=O)N1CCl
inactive: dose: 6.25 mg/kg/injection, schedule: Q01DX005 (ip), vehicle: saline 100 % of control | dose: 12.5 mg/kg/injection, schedule: Q01DX005 (ip), vehicle: saline 101 % of control | dose: 25.0 mg/kg/injection, schedule: Q01DX005 (ip), vehicle: saline 108 % of control | dose: 30.0 mg/kg/injection, schedule: Q01DX005 (ip), vehicle: saline 104 % of control | [16] 103 % of control | dose: 60.0 mg/kg/injection, schedule: Q01DX005 (ip), vehicle: saline 122 % of control | [17] 112 % of control | dose: 120.0 mg/kg/injection, schedule: Q01DX005 (ip), vehicle: saline 118 % of control | dose: 240.0 mg/kg/injection, schedule: Q01DX005 (ip), vehicle: saline 114 % of control

C=C1CCC2C(OC(=O)C2(O)COC(C)=O)C2C(=C)C(O)CC12 (centres undefined)
inactive: dose: 10.63 mg/kg/injection, schedule: Q01DX005 (ip), vehicle: Klucel (hydroxypropylcellulose) (HPC) 99 % of control | dose: 21.25 mg/kg/injection, schedule: Q01DX005 (ip), vehicle: Klucel (hydroxypropylcellulose) (HPC) 104 % of control | dose: 42.5 mg/kg/injection, schedule: Q01DX005 (ip), vehicle: Klucel (hydroxypropylcellulose) (HPC) 100 % of control | dose: 85.0 mg/kg/injection, schedule: Q01DX005 (ip), vehicle: Klucel (hydroxypropylcellulose) (HPC) 106 % of control | dose: 170.0 mg/kg/injection, schedule: Q01DX005 (ip), vehicle: Klucel (hydroxypropylcellulose) (HPC) 106 % of control
